Active and inactive are the calls of the source. The calls are words filed in the database; no cut-off is given here.
How the values were obtained:
Leishmania amazonensis [1] = experiment: Antileishmanial activity against Leishmania amazonensis IFLA/BR/67/PH8 promastigotes assessed as lysis of promastigotes at 100 ug/ml after 72 hrs; assay type: functional
Leishmania braziliensis [2] = experiment: Antileishmanial activity against Leishmania braziliensis MHOM/BR/75/M2903 promastigotes assessed as lysis of promastigotes at 100 ug/ml after 72 hrs; assay type: functional
Trypanosoma cruzi [3] = experiment: Trypanocidal activity against Trypanosoma cruzi CL-B5 clone epimastigotes expressing lacZ gene after 72 hrs at 28 degC; assay type: functional, organism-based
Trypanosoma cruzi [4] = experiment: Antitrypanosomal activity against Trypanosoma cruzi CL-B5 amastigotes infected in mouse NCTC-929 fibroblast after 7 days by colorimetric method; assay type: functional, organism-based; conditions: NCTC-929, 168 h
Leishmania amazonensis [5] = experiment: Leishmanicidal activity against Leishmania amazonensis amastigotes infected in BALB/c mouse assessed as suppression of parasite load in lesions at 100 mg/kg/day, sc administered 4 weeks after infection for 15 days measured after 1 week relative to control; assay type: functional, organism-based
Leishmania amazonensis [6] = experiment: Leishmanicidal activity against Leishmania amazonensis amastigotes infected in BALB/c mouse assessed as suppression of lesion weight at 100 mg/kg/day, sc administered 4 weeks after infection for 15 days measured after 1 week relative to control; assay type: functional, organism-based
[7] = Cytotoxicity against mouse NCTC-929 fibroblast at 4.3 uM after 24 hrs by resazurin test; assay type: cell-based; conditions: nctc-929, 24 h
[8] = Cytotoxicity against mouse NCTC-929 fibroblast at 21.7 uM after 24 hrs by resazurin test; assay type: cell-based; conditions: nctc-929, 24 h
[9] = Cytotoxicity against BALB/c mouse peritoneal macrophages at 21.7 uM after 48 hrs by trypan blue exclusion method; assay type: cell-based; conditions: macrophage
Leishmania donovani [10] = experiment: Leishmanicidal activity against Leishmania donovani MHOM/BR/74/PP75 promastigotes at >13.03 uM after 72 hrs; assay type: functional, organism-based
Leishmania amazonensis [11] = experiment: Leishmanicidal activity against Leishmania amazonensis amastigotes infected in BALB/c mouse assessed as suppression of lesion weight at 10 mg/kg/day, sc administered 4 weeks after infection for 15 days measured after 1 week relative to control; assay type: functional; conditions: route subcutaneous
Leishmania donovani [12] = experiment: Leishmanicidal activity against Leishmania donovani MHOM/BR/74/PP75 promastigotes after 72 hrs; assay type: functional, organism-based
[13] = Cytotoxicity against mouse NCTC-929 fibroblast at 8.6 uM after 24 hrs by resazurin test; assay type: cell-based; conditions: nctc-929, 24 h
J774 [14] = experiment: Cytotoxicity against mouse J774 macrophages at 2.1 uM after 24 hrs by resazurin test; assay type: cell-based; conditions: j774, 24 h
[15] = Cytotoxicity against mouse NCTC-929 fibroblast at 2.1 uM after 24 hrs by resazurin test; conditions: nctc-929, 24 h
Leishmania amazonensis [16] = experiment: Leishmanicidal activity against Leishmania amazonensis amastigotes infected in BALB/c mouse assessed as suppression of lesion weight at 25 mg/kg/day, po administered 4 weeks after infection for 15 days measured after 1 week relative to control; assay type: functional
Leishmania amazonensis [17] = experiment: Leishmanicidal activity against Leishmania amazonensis IFLA/BR/67/PH8 promastigotes after 72 hrs; assay type: functional, organism-based; conditions: IFLA/BR/67/PH8, 72 h
Leishmania amazonensis [18] = experiment: Leishmanicidal activity against Leishmania amazonensis amastigotes infected in BALB/c mouse assessed as suppression of parasite load in lesions at 25 mg/kg/day, po administered 4 weeks after infection for 15 days measured after 1 week relative to control; assay type: functional
Leishmania amazonensis [19] = experiment: Leishmanicidal activity against Leishmania amazonensis amastigotes infected in BALB/c mouse assessed as suppression of lesion weight at 25 mg/kg/day, sc administered 4 weeks after infection for 15 days measured after 1 week relative to control; assay type: functional; conditions: route subcutaneous
Leishmania amazonensis [20] = experiment: Leishmanicidal activity against Leishmania amazonensis amastigotes infected in BALB/c mouse assessed as suppression of parasite load in lesions at 10 mg/kg/day, sc administered 4 weeks after infection for 15 days measured after 1 week relative to control; assay type: functional; conditions: route subcutaneous
Leishmania amazonensis [21] = experiment: Leishmanicidal activity against Leishmania amazonensis amastigotes infected in BALB/c mouse assessed as suppression of parasite load in lesions at 10 mg/kg/day, po administered 4 weeks after infection for 15 days measured after 1 week relative to control; assay type: functional
Leishmania amazonensis [22] = experiment: Leishmanicidal activity against Leishmania amazonensis amastigotes infected in BALB/c mouse assessed as suppression of lesion weight at 10 mg/kg/day, po administered 4 weeks after infection for 15 days measured after 1 week relative to control; assay type: functional
[23] = Cytotoxicity against BALB/c mouse peritoneal macrophages at 2.1 uM after 48 hrs by trypan blue exclusion method; assay type: cell-based; conditions: macrophage
Leishmania braziliensis [24] = experiment: Leishmanicidal activity against Leishmania braziliensis MHOM/BR/75/M2903 promastigotes after 72 hrs; assay type: functional, organism-based; conditions: MHOM/BR/75/M2903, 72 h
J774 [25] = experiment: Cytotoxicity against mouse J774 macrophages at 4.3 uM after 24 hrs by resazurin test; assay type: cell-based; conditions: j774, 24 h
[26] = Cytotoxicity against BALB/c mouse peritoneal macrophages at 8.6 uM after 48 hrs by trypan blue exclusion method; assay type: cell-based; conditions: macrophage
Leishmania amazonensis [27] = experiment: Antileishmanial activity against Leishmania amazonensis PH8 amastigotes infected in mouse peritoneal macrophages at >4.34 uM; assay type: functional, organism-based
Leishmania braziliensis [28] = experiment: Leishmanicidal activity against Leishmania braziliensis MHOM/BR/75/M2903 promastigotes at >13.03 uM after 72 hrs; assay type: functional, organism-based
Leishmania donovani [29] = experiment: Antileishmanial activity against Leishmania donovani MHOM/BR/74/PP75 promastigotes assessed as lysis of promastigotes at 100 ug/ml after 72 hrs; assay type: functional
Leishmania amazonensis [30] = experiment: Leishmanicidal activity against Leishmania amazonensis IFLA/BR/67/PH8 promastigotes at >13.03 uM after 72 hrs; assay type: functional, organism-based
J774 [31] = experiment: Cytotoxicity against mouse J774 macrophages at 8.6 uM after 24 hrs by resazurin test; assay type: cell-based; conditions: j774, 24 h
Leishmania amazonensis [32] = experiment: Antileishmanial activity against Leishmania amazonensis PH8 amastigotes infected in mouse peritoneal macrophages after 48 hrs; assay type: functional, organism-based; conditions: PH8, 48 h
Leishmania amazonensis [33] = experiment: Leishmanicidal activity against Leishmania amazonensis amastigotes infected in BALB/c mouse assessed as suppression of parasite load in lesions at 25 mg/kg/day, sc administered 4 weeks after infection for 15 days measured after 1 week relative to control; assay type: functional; conditions: route subcutaneous
J774 [34] = experiment: Cytotoxicity against mouse J774 macrophages at 21.7 uM after 24 hrs by resazurin test; assay type: cell-based; conditions: j774, 24 h
[35] = Cytotoxicity against BALB/c mouse peritoneal macrophages at 4.3 uM after 48 hrs by trypan blue exclusion method; assay type: cell-based; conditions: macrophage

COc1ccc(CCc2cc(OC)ccc2OC)cc1
Activity (Leishmania amazonensis [1]): <70% | Activity (Leishmania braziliensis [2]): <70%

O=C(Cn1ccnc1[N+](=O)[O-])NCc1ccccc1 [BENZNIDAZOLE]
IC50 (Trypanosoma cruzi [3]): 54.7 µM | IC50 (Trypanosoma cruzi [4]): 192 µM

MEGLUMINE ANTIMONATE
Activity (Leishmania amazonensis [5]): 98.2% | Activity (Leishmania amazonensis [6]): 72.1%

Oc1ccc(CCc2cccc(O)c2)cc1 [LUNULARIN]
Activity (Leishmania amazonensis [1]): <70% | Activity (Leishmania braziliensis [2]): <70%

Oc1ccc(CCc2cc(O)ccc2O)cc1
Activity [7]: 0.66% | Activity [8]: 7.91% | Activity [9]: 1.4% | Activity (Leishmania donovani [10]): Active | IC50 (Trypanosoma cruzi [3]): 5.8 µM | Activity (Leishmania amazonensis [11]): 95.9% | IC50 (Leishmania donovani [12]): 0.5 µM | Activity [13]: 2.93% | Activity (Leishmania amazonensis [1]): 100% | Activity (J774 [14]): 0.76% | Activity (Leishmania braziliensis [2]): 100% | Activity [15]: 0% | Activity (Leishmania amazonensis [16]): 80.9% | IC50 (Leishmania amazonensis [17]): 1.1 µM | Activity (Leishmania amazonensis [18]): 93.1% | Activity (Leishmania amazonensis [19]): 98.3% | Activity (Leishmania amazonensis [20]): 93% | Activity (Leishmania amazonensis [21]): 68.6% | Activity (Leishmania amazonensis [22]): 90% | Activity [23]: 0% | IC50 (Leishmania braziliensis [24]): 1.1 µM | Activity (J774 [25]): 2.11% | Activity [26]: 0% | IC50 (Trypanosoma cruzi [4]): 17.3 µM | Activity (Leishmania amazonensis [27]): Active | Activity (Leishmania braziliensis [28]): Active | Activity (Leishmania donovani [29]): 100% | Activity (Leishmania amazonensis [30]): Active | Activity (J774 [31]): 4.89% | IC50 (Leishmania amazonensis [32]): 1.5 µM | Activity (Leishmania amazonensis [33]): 97% | Activity (J774 [34]): 18.88% | Activity [35]: 0%

N=C(N)c1ccc(OCCCCCOc2ccc(C(=N)N)cc2)cc1 [PENTAMIDINE]
IC50 (Leishmania donovani [12]): 9.8 µM | IC50 (Leishmania amazonensis [17]): 9.8 µM | IC50 (Leishmania braziliensis [24]): 9.8 µM | IC50 (Leishmania amazonensis [32]): 0.9 µM

Oc1ccc(/C=C/c2cc(O)cc(O)c2)cc1 [RESVERATROL]
Activity (Leishmania amazonensis [1]): <70% | Activity (Leishmania braziliensis [2]): 80% | Activity (Leishmania donovani [29]): <70%

Reference: ChEMBL document CHEMBL1154439, “Activity of a hydroxybibenzyl bryophyte constituent against Leishmania spp. and Trypanosoma cruzi: in silico, in vitro and in vivo activity studies” (Eur J Med Chem, 2008)
